Experimental data from ChEMBL document CHEMBL5728527, “Naphthyridines as inhibitors of HPK1” (2021).
Values joined by “and” are separate entries in the source; they are usually repeats but may differ in a detail not shown here. Identical values can stand only once.

What follows are molecules tested against Mitogen-activated protein kinase kinase kinase kinase 1 (Homo sapiens, UniProt Q92918) (assay: Binding Assay: Lanth: For the binding assay, 4 ul 2×HPK1 and Eu-anti-GST antibody were added to each well of the assay plate using a Multidrop reagent dispenser. The solutions were incubated in a 23 C incubator for 1 h. To each well of the assay plate was added 4 ul 2× Tracer-222 using a Multidrop reagent dispenser. The solutions were again incubated in a 23 C incubator for 1 h. The results of the assay were read using an Envision plate reader with the following parameters: TR_FRET, 340ex/615 and 665em; 100 usec Delay; and 200 usec integration.).
Chain of Mitogen-activated protein kinase kinase kinase kinase 1 (Q92918 whole entry): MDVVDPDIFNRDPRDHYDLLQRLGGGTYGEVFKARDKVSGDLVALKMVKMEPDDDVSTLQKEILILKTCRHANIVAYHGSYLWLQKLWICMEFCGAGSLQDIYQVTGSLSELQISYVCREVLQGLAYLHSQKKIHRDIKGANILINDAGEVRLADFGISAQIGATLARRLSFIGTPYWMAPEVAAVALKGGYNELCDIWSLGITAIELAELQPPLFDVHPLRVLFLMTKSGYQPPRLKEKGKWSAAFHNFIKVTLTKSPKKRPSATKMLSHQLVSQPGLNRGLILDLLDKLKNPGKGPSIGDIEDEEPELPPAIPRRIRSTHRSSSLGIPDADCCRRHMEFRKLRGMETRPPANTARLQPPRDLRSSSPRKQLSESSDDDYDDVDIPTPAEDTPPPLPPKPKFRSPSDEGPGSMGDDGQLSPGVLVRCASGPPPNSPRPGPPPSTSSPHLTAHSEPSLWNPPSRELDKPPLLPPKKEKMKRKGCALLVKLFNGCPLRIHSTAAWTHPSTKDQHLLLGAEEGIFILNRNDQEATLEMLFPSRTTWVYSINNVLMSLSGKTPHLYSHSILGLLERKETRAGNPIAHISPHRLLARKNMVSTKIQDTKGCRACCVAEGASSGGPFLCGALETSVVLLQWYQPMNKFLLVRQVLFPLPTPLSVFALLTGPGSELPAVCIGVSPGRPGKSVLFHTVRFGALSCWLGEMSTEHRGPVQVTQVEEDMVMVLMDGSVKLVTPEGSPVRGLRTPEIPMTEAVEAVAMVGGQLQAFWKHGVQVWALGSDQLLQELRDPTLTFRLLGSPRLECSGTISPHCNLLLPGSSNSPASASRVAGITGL

`CCc1cc(OC)ncc1-c1cc2cc(NC(=O)[C@@H]3C[C@@H]3F)ncc2c(N)n1` (racemic) and `CCc1cc(N)ncc1-c1cc2cc(NC(=O)[C@@H]3C[C@@H]3F)ncc2c(N)n1` (racemic) are within 1.5-fold of each other in Ki: 4.88 nM for the first, 5.76 nM for the second.

First: CCc1ccncc1-c1cc2cc(NC(=O)[C@@H]3C[C@@H]3C(N)=O)ncc2c(N)n1 (racemic)
Second: CCc1ccncc1-c1cc2cc(NC(=O)[C@@H]3C[C@H]3C(=O)C3CC(O)C3)ncc2c(N)n1 (mixture of isomers)
The Ki of the first is 6.3-fold lower: 25.8 nM for the first, 163 nM for the second. The first binds more tightly here.

`Cc1nn(C)c(C)c1-c1cc2cc(NC(=O)[C@H]3C[C@@H]3C(F)(F)F)ncc2c(N)n1` (racemic) and `Cc1[nH]ncc1-c1cc2cc(NC(=O)[C@@H]3C[C@H]3C(F)(F)F)ncc2c(N)n1` (racemic) are within 1.5-fold of each other in Ki: 12 nM for the first, 16 nM for the second.

Compared with `N#C[C@@H]1C[C@H]1C(=O)Nc1cc2cc(-c3cnccc3C(F)(F)F)nc(N)c2cn1` (racemic), `Cc1ccncc1-c1cc2cc(NC(=O)[C@@H]3C[C@H]3C#N)ncc2c(N)n1` (single isomer, unassigned) is 1.6-fold lower in Ki: 6.49 nM for the first, 4.06 nM for the second.

First: COC1CN([C@H]2C[C@@H]3[C@H](C2)[C@H]3C(=O)Nc2cc3cc(-c4cnccc4C)nc(N)c3cn2)C1
Second: Cc1ccncc1-c1cc2cc(NC(=O)[C@H]3[C@@H]4CC(N5CCOCC5)C[C@@H]43)ncc2c(N)n1 (some centres not stated)
The Ki of the first is 2.2-fold higher: 2.14 nM for the first, 0.972 nM for the second.

Going from `Cc1ccncc1-c1cc2cc(NC(=O)[C@H]3C[C@@H]3CO)ncc2c(N)n1` (racemic) to `Cc1ccncc1-c1cc2cc(NC(=O)[C@@H]3C[C@H]3CN)ncc2c(N)n1` (racemic), the Ki rises from 1.1 nM to 2.4 nM (2.2-fold).

Compared with `Cc1ccncc1-c1nc(N)c2cnc(NC(=O)[C@@H]3C[C@H]3c3cn[nH]c3)cc2c1F` (racemic), `Cc1ccncc1-c1nc(N)c2cnc(NC(=O)[C@@H]3C[C@H]3c3cn[nH]c3)cc2c1Cl` (racemic) is 4-fold lower in Ki: 0.19 nM for the first, 0.047 nM for the second.

Going from `CCOc1ccncc1-c1cc2cc(NC(=O)[C@H]3C[C@@H]3C#N)ncc2c(N)n1` (racemic) to `CCc1ccncc1-c1cc2cc(NC(=O)[C@@H]3C[C@H]3C#N)ncc2c(N)n1` (single isomer, unassigned), the Ki rises from 0.98 nM to 7.36 nM (7.5-fold).

Going from `Cc1ccncc1-c1cc2cc(NC(=O)[C@@H]3C[C@@H]3F)ncc2c(N)n1` (racemic) to `Cc1ccncc1-c1cc2cc(NC(=O)[C@@H]3C[C@H]3F)ncc2c(N)n1` (single isomer, unassigned), the Ki rises from 0.38 nM to 2.8 nM (7.4-fold). The first binds more tightly here.

First: Cc1ccncc1-c1cc2cc(NC(=O)[C@H]3[C@H](C)[C@@H]3CC#N)ncc2c(N)n1
Second: Cc1ccncc1-c1cc2cc(NC(=O)[C@@H]3[C@@H](C)[C@H]3CC#N)ncc2c(N)n1
The Ki of the first is 7.2-fold higher: 6.01 nM for the first, 0.837 nM for the second. The second binds more tightly here.

Compared with `Cc1cc(N2CCC2=O)ncc1-c1cc2cc(NC(=O)[C@H]3C[C@@H]3c3cnn(C)c3)ncc2c(N)n1`, `Cc1cc(-n2cccn2)ncc1-c1cc2cc(NC(=O)[C@H]3C[C@@H]3c3cnn(C)c3)ncc2c(N)n1` is 1.9-fold higher in Ki: 1.73 nM for the first, 3.3 nM for the second. The first binds more tightly here.

First: Cc1cc(C(=O)NCC(F)(F)F)ccc1-c1cc2cc(NC(=O)[C@@H]3C[C@H]3C#N)ncc2c(N)n1 (relative stereo)
Second: Cc1cc(C)c(-c2cc3cc(NC(=O)[C@@H]4C[C@H]4C#N)ncc3c(N)n2)cc1C(N)=O (racemic)
The Ki of the first is 11-fold lower: 8.1 nM for the first, 89 nM for the second. The first binds more tightly here.

First: Cc1ccncc1-c1cc2cc(NC(=O)[C@H]3C[C@@H]3c3ncccn3)ncc2c(N)n1 (racemic)
Second: Cc1ccncc1-c1cc2cc(NC(=O)[C@@H]3C[C@H]3c3cnsc3)ncc2c(N)n1 (racemic)
The Ki of the first is 67-fold higher: 10 nM for the first, 0.15 nM for the second. The second binds more tightly here.

Going from `Cc1cc(C(C)(C)O)ncc1-c1cc2cc(NC(=O)[C@@H]3C[C@@H]3F)ncc2c(N)n1` (racemic) to `Cc1cnc(CO)cc1-c1cc2cc(NC(=O)[C@@H]3C[C@@H]3F)ncc2c(N)n1` (racemic), the Ki falls from 41.7 nM to 18.3 nM (2.3-fold).

Compared with `Cn1cc([C@H]2C[C@@H]2C(=O)Nc2cc3cc(-c4cnc5c(=O)n(C)ncc5c4)nc(N)c3cn2)cn1` (racemic), `Cn1cc([C@H]2C[C@@H]2C(=O)Nc2cc3cc(-c4cnc(N)c(C(F)(F)F)c4)nc(N)c3cn2)cn1` (racemic) is 3.8-fold higher in Ki: 3.14 nM for the first, 11.8 nM for the second.

`Nc1nc(-c2cncc3c2CCN3)cc2cc(NC(=O)[C@@H]3C[C@@H]3F)ncc12` (racemic) and `Nc1nc(-c2cncc3c2OCCN3)cc2cc(NC(=O)[C@@H]3C[C@@H]3F)ncc12` (racemic) are within 1.5-fold of each other in Ki: 0.154 nM for the first, 0.135 nM for the second.

First: Nc1nc(-c2cncc3c2OCC(=O)N3)cc2cc(NC(=O)[C@@H]3C[C@@H]3F)ncc12 (racemic)
Second: Cc1cc2c(cc1-c1cc3cc(NC(=O)[C@@H]4C[C@@H]4F)ncc3c(N)n1)CC(=O)N2 (racemic)
The Ki of the first is 1.6-fold lower: 1.77 nM for the first, 2.81 nM for the second.

Compared with `CCC1CCCN1c1cc2cc(NC(=O)[C@H]3C[C@H]3F)ncc2c(N)n1` (mixture of isomers), `CCc1cc(=O)n(C)cc1-c1cc2cc(NC(=O)[C@@H]3C[C@@H]3F)ncc2c(N)n1` (racemic) is 2.6-fold higher in Ki: 172 nM for the first, 440 nM for the second.

Going from `Cc1ccncc1-c1nc(N)c2cnc(NC(=O)[C@H]3C[C@@H]3C#N)cc2c1F` (racemic) to `C=Cc1c(-c2cnccc2C)nc(N)c2cnc(NC(=O)[C@H]3C[C@@H]3CC#N)cc12` (racemic), the Ki falls from 4.4 nM to 0.225 nM (20-fold).

Going from `Cn1ccc2cncc(-c3cc4cc(NC(=O)[C@@H]5C[C@@H]5F)ncc4c(N)n3)c21` (racemic) to `Cc1ccncc1-c1cc2cc(NC(=O)[C@@H]3C[C@@H]3C)ncc2c(N)n1` (racemic), the Ki falls from 101 nM to 2.3 nM (44-fold). The second binds more tightly here.

`N#CC[C@H]1C[C@@H]1C(=O)Nc1cc2cc(-c3cnccc3CCO)nc(N)c2cn1` (racemic) and `Cc1ccncc1-c1cc2cc(NC(=O)[C@H]3C[C@@H]3CC#N)ncc2c(N)n1` (racemic) are within 1.5-fold of each other in Ki: 0.501 nM for the first, 0.57 nM for the second.

Going from `Cc1ccncc1-c1cc2cc(NC(=O)[C@@H]3C[C@]34CCNC4)ncc2c(N)n1` (racemic) to `Cc1ccncc1-c1cc2cc(NC(=O)C3CC34CC4)ncc2c(N)n1` (racemic), the Ki falls from 6.8 nM to 1.35 nM (5-fold).

`CC(=O)OC[C@@]1(C)C[C@@H]1C(=O)Nc1cc2cc(-c3cnccc3C)nc(N)c2cn1` (racemic) and `CC(=O)OC[C@]1(C)C[C@@H]1C(=O)Nc1cc2cc(-c3cnccc3C)nc(N)c2cn1` (racemic) are within 1.5-fold of each other in Ki: 17.1 nM for the first, 14.6 nM for the second.

`Cc1c(N)cncc1-c1cc2cc(NC(=O)[C@H]3C[C@@H]3C(F)(F)F)ncc2c(N)n1` (racemic) and `Cc1ccncc1-c1cc2cc(NC(=O)C3C[C@@H]3C(F)(F)F)ncc2c(N)n1` (some centres not stated) are within 1.5-fold of each other in Ki: 1.1 nM for the first, 1.42 nM for the second.

Compared with `Cc1ccncc1-c1cc2cc(NC(=O)[C@H]3[C@@H](C)[C@@H]3CC#N)ncc2c(N)n1`, `Cc1ccncc1-c1cc2cc(NC(=O)[C@@H]3[C@H](C)[C@H]3CC#N)ncc2c(N)n1` is 4.1-fold lower in Ki: 0.763 nM for the first, 0.188 nM for the second. The second binds more tightly here.

First: Cc1ccncc1-c1cc2cc(NCC3CC3(F)F)ncc2c(N)n1 (racemic)
Second: Cc1ccncc1-c1cc2cc(NC(=O)[C@@H]3C[C@H]3C(F)(F)F)ncc2c(N)n1 (racemic)
The Ki of the first is 44-fold higher: 61.3 nM for the first, 1.4 nM for the second.

Going from `Cc1cc(C(=O)OCc2ccccc2)ncc1-c1cc2cc(NC(=O)[C@H]3C[C@@H]3c3cnn(C)c3)ncc2c(N)n1` (racemic) to `COC(=O)c1cc(C)c(-c2cc3cc(NC(=O)[C@H]4C[C@@H]4c4cnn(C)c4)ncc3c(N)n2)cn1`, the Ki falls from 1.17 nM to 0.509 nM (2.3-fold).

First: Cc1cnc(C#N)cc1-c1cc2cc(NC(=O)[C@@H]3C[C@@H]3F)ncc2c(N)n1 (racemic)
Second: Cc1c[nH]c(=O)cc1-c1cc2cc(NC(=O)[C@@H]3C[C@@H]3F)ncc2c(N)n1 (racemic)
The Ki of the first is 3.5-fold higher: 22.5 nM for the first, 6.5 nM for the second. The second binds more tightly here.

Compared with `CC(O)Cc1ccncc1-c1cc2cc(NC(=O)[C@H]3C[C@@H]3C#N)ncc2c(N)n1` (mixture of isomers), `CCc1ccncc1-c1cc2cc(NC(=O)[C@H]3C[C@H]3C#N)ncc2c(N)n1` (single isomer, unassigned) is 2-fold lower in Ki: 7.28 nM for the first, 3.64 nM for the second.

Compared with `COCCc1ccncc1-c1cc2cc(NC(=O)[C@H]3C[C@@H]3C#N)ncc2c(N)n1` (racemic), `Cc1c(-c2cc3cc(NC(=O)[C@H]4C[C@@H]4C#N)ncc3c(N)n2)cncc1C(F)F` (racemic) is 1.8-fold higher in Ki: 21.2 nM for the first, 39 nM for the second.

Going from `C[C@@H]1C[C@H]1C(=O)Nc1cc2cc(-c3cnn(C)c3)nc(N)c2cn1` (racemic) to `Cc1ccncc1-c1cc2cc(NC(=O)[C@@H]3C[C@H]3c3cnn(C)c3)ncc2c(N)n1` (racemic), the Ki falls from 1.85 nM to 0.23 nM (8-fold). The second binds more tightly here.

Compared with `Cc1ccnc(C)c1-c1cc2cc(NC(=O)[C@@H]3C[C@@H]3F)ncc2c(N)n1` (racemic), `Cc1ncc(N)c(C)c1-c1cc2cc(NC(=O)[C@@H]3C[C@H]3C)ncc2c(N)n1` (racemic) is 1.6-fold lower in Ki: 5.03 nM for the first, 3.2 nM for the second. The second binds more tightly here.

Compared with `Cc1ccnc(-c2ccccc2)c1-c1cc2cc(NC(=O)[C@H]3C[C@@H]3CC#N)ncc2c(N)n1` (racemic), `Cc1ccncc1-c1cc2cc(NC(=O)[C@@H]3C[C@H]3c3cc[nH]n3)ncc2c(N)n1` (racemic) is 11-fold higher in Ki: 0.051 nM for the first, 0.58 nM for the second. The first binds more tightly here.

First: Cc1ccncc1-c1cc2cc(NC(=O)[C@H]3[C@@H]4COC[C@@H]43)ncc2c(N)n1 (single isomer, unassigned)
Second: Cc1ccncc1-c1cc2cc(NC(=O)C(C)C)ncc2c(N)n1
The Ki of the first is 6.1-fold lower: 4.9 nM for the first, 29.8 nM for the second.

First: Cc1ccc(F)cc1-c1cc2cc(NC(=O)[C@H]3C[C@@H]3c3cnn(C)c3)ncc2c(N)n1 (racemic)
Second: Cc1cc(C(=O)N(C)C)ncc1-c1cc2cc(NC(=O)[C@H]3C[C@@H]3c3cnn(C)c3)ncc2c(N)n1 (racemic)
The Ki of the first is 54-fold lower: 0.113 nM for the first, 6.14 nM for the second.

Going from `Cc1cc2[nH]cnc2cc1-c1cc2cc(NC(=O)[C@@H]3C[C@@H]3F)ncc2c(N)n1` (racemic) to `Cc1ncc(-c2cc3cc(NC(=O)[C@@H]4C[C@H]4C#N)ncc3c(N)n2)n1C` (relative stereo), the Ki rises from 7.9 nM to 18.9 nM (2.4-fold).

Compared with `Cc1ccncc1-c1cc2cc(Nc3cnn([C@H]4CN(C5COC5)CC[C@@H]4O)c3)ncc2c(N)n1` (racemic), `Cc1cc(-c2ccn(C)n2)ncc1-c1cc2cc(NC(=O)[C@H]3C[C@@H]3c3cnn(C)c3)ncc2c(N)n1` is 4-fold higher in Ki: 0.567 nM for the first, 2.26 nM for the second. The first binds more tightly here.

`CCc1ccncc1-c1cc2cc(NC(=O)[C@H]3C[C@@H]3C#N)ncc2c(N)n1` was tested, and the Ki was 1.31 nM and 0.583 nM.
`CCC1CCCN1c1cc2cc(NC(=O)[C@@H]3C[C@@H]3F)ncc2c(N)n1` (mixture of isomers) was tested, and the Ki was 11.7 nM and 10.3 nM.
For `CCc1ccncc1-c1cc2cc(NC(=O)[C@@H]3C[C@@H]3C#N)ncc2c(N)n1`, the Ki was 10.6 nM and 3.21 nM.
